Data published in patent US9624229B2, “Pyrimidine-2-amine compounds and their use as inhibitors of JAK kinases” (Rigel Pharmaceuticals, Inc., priority 2008, dated 2017).

Biological target: Ba/F3 V617F cells (Homo sapiens, UniProt O60674, V617F, cells depend on it)
Assay: Proliferation assay (Cell Titer-Glo, 72 h) utilizing Ba/F3 V617F cells
Assay type: cell-based, mouse
Conditions: Ba/F3 V617F cells, proliferation, level of activity given as class symbol, read-out: IC50 (the source's name)
Procedure, shortened: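 Ba/F3 V617F cells in RPMI/10% FBS, 1×10^5 cells/mL, exposed in duplicate to 3-fold serial compound dilutions (top 5 mM DMSO stock, diluted 1:250, added as 2× solution in 5% FBS medium) for 72 h at 37 °C. Viability by Cell Titer-Glo luminescence; IC50 reported.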

Sequence of Ba/F3 V617F cells (O60674 whole entry V617F): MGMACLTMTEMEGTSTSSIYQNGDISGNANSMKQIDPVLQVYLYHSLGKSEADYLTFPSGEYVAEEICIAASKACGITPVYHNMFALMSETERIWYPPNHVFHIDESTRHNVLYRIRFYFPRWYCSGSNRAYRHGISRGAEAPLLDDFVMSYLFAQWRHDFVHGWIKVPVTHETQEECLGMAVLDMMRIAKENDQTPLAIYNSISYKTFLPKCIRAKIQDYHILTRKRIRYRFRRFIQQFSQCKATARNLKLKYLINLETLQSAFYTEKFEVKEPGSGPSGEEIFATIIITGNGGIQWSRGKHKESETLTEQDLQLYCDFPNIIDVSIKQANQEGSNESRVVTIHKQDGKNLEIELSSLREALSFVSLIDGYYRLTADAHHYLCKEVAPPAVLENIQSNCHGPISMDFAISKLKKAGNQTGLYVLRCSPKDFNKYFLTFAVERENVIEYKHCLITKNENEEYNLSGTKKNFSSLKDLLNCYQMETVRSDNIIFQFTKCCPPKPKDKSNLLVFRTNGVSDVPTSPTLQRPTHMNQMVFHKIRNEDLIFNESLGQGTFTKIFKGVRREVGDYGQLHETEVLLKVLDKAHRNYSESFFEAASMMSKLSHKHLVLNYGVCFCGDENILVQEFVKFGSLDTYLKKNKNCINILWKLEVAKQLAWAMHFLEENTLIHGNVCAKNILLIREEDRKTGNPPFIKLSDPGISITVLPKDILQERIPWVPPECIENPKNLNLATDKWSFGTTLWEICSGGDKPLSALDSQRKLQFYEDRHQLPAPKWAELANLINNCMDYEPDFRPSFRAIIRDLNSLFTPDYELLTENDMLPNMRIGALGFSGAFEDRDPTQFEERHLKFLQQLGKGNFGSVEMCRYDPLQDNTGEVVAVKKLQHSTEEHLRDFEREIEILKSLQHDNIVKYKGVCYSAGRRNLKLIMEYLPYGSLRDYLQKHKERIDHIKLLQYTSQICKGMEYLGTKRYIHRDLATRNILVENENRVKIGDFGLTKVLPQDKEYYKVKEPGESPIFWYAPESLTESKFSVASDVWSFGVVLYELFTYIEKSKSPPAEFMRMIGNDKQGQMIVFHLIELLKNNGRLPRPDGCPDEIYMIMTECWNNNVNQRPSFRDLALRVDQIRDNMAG

Row | GI50 [nM] | SMILES
1 | < 1000 | Cc1cc(Nc2nccc(-c3ccc(OC4CCOCC4)nc3)n2)ccc1N1C[C@@H]2C[C@H]1CN2C1CCCC1 [compound 262, 4-(6-(tetrahydropyran-4-yloxy)pyridin-3-yl)-N-(3-methyl-4-((1S,4S)-5-cyclopentyl-2,5-diazabicyclo[2.2.1]heptan-2-yl)phenyl)pyrimidin-2-amine]
2 | < 1000 | CCN1C[C@@H]2C[C@H]1CN2c1ccc(Nc2nccc(-c3ccc4c(ccn4-c4ccncc4)c3)n2)cc1C [compound 234, 4-(1-(pyridin-4-yl)-1H-indol-5-yl)-N-(3-methyl-4-((1S,4S)-5-ethyl-2,5-diazabicyclo[2.2.1]heptan-2-yl)phenyl)pyrimidin-2-amine]
3 | 1000 to 10000 | CS(=O)(=O)N1C[C@@H]2C[C@H]1CN2c1ccc(Nc2nccc(-c3ccc(OC4CCOCC4)nc3)n2)cc1Cl [compound 258, 4-(6-(tetrahydropyran-4-yloxy)pyridin-3-yl)-N-(3-chloro-4-((1S,4S)-5-(methylsulfonyl)-2,5-diazabicyclo[2.2.1]heptan-2-yl)phenyl)pyrimidin-2-amine]
4 | < 1000 | CN1C[C@@H]2C[C@H]1CN2c1ccc(Nc2nccc(-c3ccc4c(c3)SCC(=O)N4)n2)cc1 [compound 239, 4-(3-oxo-3,4-dihydro-2H-benzo[b][1,4]thiazin-7-yl)-N-(4-((1S,4S)-5-methyl-2,5-diazabicyclo[2.2.1]heptan-2-yl)phenyl)pyrimidin-2-amine]
5 | < 1000 | CN1C[C@@H]2C[C@H]1CN2c1ccc(Nc2nccc(-c3ccc(N4CCOCC4)nc3)n2)cc1Cl [compound 255, 4-(6-(morpholin-4-yl)pyridin-3-yl)-N-(3-chloro-4-((1S,4S)-5-methyl-2,5-diazabicyclo[2.2.1]heptan-2-yl)phenyl)pyrimidin-2-amine]
6 | < 1000 | CS(=O)(=O)N1C[C@@H]2C[C@H]1CN2c1ccc(Nc2nccc(-c3ccc(N4CCOCC4)nc3)n2)cc1Cl [compound 257, 4-(6-(morpholin-4-yl)pyridin-3-yl)-N-(3-chloro-4-((1S,4S)-5-(methylsulfonyl)-2,5-diazabicyclo[2.2.1]heptan-2-yl)phenyl)pyrimidin-2-amine]
7 | 1000 to 10000 | Cc1cc(Nc2nccc(-c3cnc4[nH]c5c(c4c3)CCCC5)n2)ccc1N1C[C@@H]2C[C@H]1CN2C [compound 267, 4-(6,7,8,9-tetrahydro-5H-pyrido[2,3-b]indol-3-yl)-N-(3-methyl-4-((1S,4S)-5-methyl-2,5-diazabicyclo[2.2.1]heptan-2-yl)phenyl)pyrimidin-2-amine]

More lines, now with the values behind:

Row | SMILES | GI50 [nM]
8 | CN1CC2(C)CN(c3ccc(Nc4nccc(-c5cnc6c(c5)OC(C)(C)C(=O)N6)n4)cc3F)CC(C)(C1)C2 [compound 208, 4-(2,2-dimethyl-3-oxo-3,4-dihydro-2H-pyrido[3,2-b][1,4]oxazin-7-yl)-N-(3-fluoro-4-(1,5,7-trimethyl-3,7-diazabicyclo[3.3.1]nonan-3-yl)phenyl)pyrimidin-2-amine] | 1000 to 10000
9 | CC1(C)Oc2cc(-c3ccnc(Nc4ccc(C5CC6CC5CN6S(C)(=O)=O)cc4)n3)cnc2NC1=O (centres unmarked) [compound 226, 4-(2,2-dimethyl-3-oxo-3,4-dihydro-2H-pyrido[3,2-b][1,4]oxazin-7-yl)-N-(4-(2-methylsulfonyl-2-azabicyclo[2.2.1]heptan-5-yl)phenyl)pyrimidin-2-amine] | 1000 to 10000
10 | Cc1cc(Nc2nccc(-c3cnc4c(c3)OC(C)(C)C(=O)N4)n2)ccc1N1CC2(C)CN(C)CC(C)(C1)C2 [compound 207, 4-(2,2-dimethyl-3-oxo-3,4-dihydro-2H-pyrido[3,2-b][1,4]oxazin-7-yl)-N-(3-methyl-4-(1,5,7-trimethyl-3,7-diazabicyclo[3.3.1]nonan-3-yl)phenyl)pyrimidin-2-amine] | < 1000

Same assay, conditions: Ba/F3 V617F cells, proliferation, level of activity to inhibit JAK2, read-out: IC50 (the source's name)

Row | GI50 [nM] | SMILES
11 | < 1000 | Cc1cc(Nc2nccc(-c3cnc4c(c3)OCCN4)n2)ccc1N1C[C@@H]2C[C@H]1CN2C [compound 86, 4-(3,4-dihydro-2H-pyrido[3,2-b][1,4]oxazin-7-yl)-N-(3-methyl-4-((1S,4S)-5-methyl-2,5-diazabicyclo[2.2.1]heptan-2-yl)phenyl)pyrimidin-2-amine]
12 | < 1000 | Cc1cc(Nc2nccc(-c3ccc(NCCNS(=O)(=O)C4CC4)nc3)n2)ccc1N1C[C@@H]2C[C@H]1CO2 [compound 100, 4-(6-((2-(cyclopropylsulfonyl)aminoethyl)-amino)pyridin-3-yl)-N-(3-methyl-4-((1S,4S)-5-oxa-2-azabicyclo[2.2.1]heptan-2-yl)phenyl)pyrimidin-2-amine]
13 | < 1000 | Cc1cc(Nc2nccc(-c3cnc4c(c3)OCCN4)n2)ccc1N1CC2(C)CN(C)CC(C)(C1)C2 [compound 88, 4-(3,4-dihydro-2H-pyrido[3,2-b][1,4]oxazin-7-yl)-N-(3-methyl-4-(1,5,7-trimethyl-3,7-diazabicyclo[3.3.1]nonan-3-yl)phenyl)pyrimidin-2-amine]
14 | < 1000 | CN1CC2(C)CN(c3ccc(Nc4nccc(-c5ccc(N(C)C)nc5)n4)cc3F)CC(C)(C1)C2 [compound 83, 4-(6-(dimethylamino)pyridin-3-yl)-N-(3-fluoro-4-(1,5,7-trimethyl-3,7-diazabicyclo[3.3.1]nonan-3-yl)phenyl)pyrimidin-2-amine]
15 | < 1000 | CCN1C[C@@H]2C[C@H]1CN2c1ccc(Nc2nccc(-c3ccc(N4CCOCC4)nc3)n2)cc1C [compound 25, 4-(6-(morpholin-4-yl)pyridin-3-yl)-N-(3-methyl-4-((1S,4S)-5-ethyl-2,5-diazabicyclo[2.2.1]heptan-2-yl)phenyl)pyrimidin-2-amine]
16 | < 1000 | CN1CCOc2cc(-c3ccnc(Nc4ccc(N5C[C@@H]6C[C@H]5CN6C)cc4)n3)cnc21 [compound 185, 4-(4-methyl-3,4-dihydro-2H-pyrido[3,2-b][1,4]oxazin-7-yl)-N-(4-((1S,4S)-5-methyl-2,5-diazabicyclo[2.2.1]heptan-2-yl)phenyl)pyrimidin-2-amine]
17 | 1000 to 10000 | CN1C[C@@H]2C[C@H]1CN2c1ccc(Nc2nccc(-c3ccc(C(=O)Nc4ccccn4)cc3)n2)cc1F [compound 133, 4-(4-((pyridin-2-yl)aminocarbonyl)phenyl)-N-(3-fluoro-4-((1S,4S)-5-methyl-2,5-diazabicyclo[2.2.1]heptan-2-yl)phenyl)pyrimidin-2-amine]

Same assay, conditions: inhibition of JAK2 activity, proliferation of Ba/F3 V617F cells, read-out: IC50 (the source's name)

Row | GI50 [nM] | SMILES
18 | 1000 to 10000 | CC(=O)N1CCN(c2ccc(-c3ccnc(Nc4cnc(N5C[C@@H]6C[C@H]5CN6C)c(C)c4)n3)cn2)CC1 [compound 63, 4-(6-(4-acetylpiperazin-1-yl)pyridin-3-yl)-N-(5-methyl-6-((1S,4S)-5-methyl-2,5-diazabicyclo[2.2.1]heptan-2-yl)pyridin-3-yl)pyrimidin-2-amine]
19 | 1000 to 10000 | CN1C[C@@H]2C[C@H]1CN2c1ccc(Nc2nccc(-c3cnc(N4CCOCC4)cn3)n2)cn1 [compound 180, 4-(5-(morpholin-4-yl)pyrazin-2-yl)-N-(6-((1S,4S)-5-methyl-2,5-diazabicyclo[2.2.1]heptan-2-yl)pyridin-3-yl)pyrimidin-2-amine]
20 | 1000 to 10000 | Cc1cc(Nc2nccc(-c3ccc(NC(=O)CN4CCOCC4)nc3)n2)cnc1N1C[C@@H]2C[C@H]1CN2C [compound 144, 4-(6-(2-(morpholin-4-yl)acetamido)pyridin-3-yl)-N-(5-methyl-6-((1S,4S)-5-methyl-2,5-diazabicyclo[2.2.1]heptan-2-yl)pyridin-3-yl)pyrimidin-2-amine]
